{
  "source": "patent US9849099B2",
  "about": "“Antimicrobial compounds, compositions and methods of use thereof” (WISCONSIN ALUMNI RESEARCH FOUNDATION, priority 2014, dated 2017)",
  "key": {"Acinetobacter baumannii [1]": {"system": "Acinetobacter baumannii", "experiment": "MIC micro-dilution", "format": "cell-based", "method": "(§1) Luria-Bertani (LB) media (10 g/L tryptone, 10 g/L NaCl, 5 g/L yeast extract, pH 7.0) was used to grow all bacterial strains, except Streptococcus pyogenes. Streptococcus pyogenes was grown in Mueller-Hinton broth containing 5% (v/v) sheep blood. All bacterial cultures were grown at 37° C. All the E. coli strains were grown while shaking at 200 rpm, while clinical pathogens were incubated without shaking.\n(§2) The MIC of all the strains was determined in LB media except Streptococcus pyogenes, which was grown in Mueller-Hinton media containing 5% (v/v) sheep blood. The micro-dilution method was utilized in 96-well clear flat-bottom plates (100 μL/well) according to the CLSI guidelines. All strains were grown at 37° C. for 16-18 hours in presence of various concentrations of compound. The MIC was determined by a visual inspection and experiments were performed in triplicate."}, "Bacillus subtilis 168": {"system": "Bacillus subtilis 168", "experiment": "MIC micro-dilution", "format": "cell-based", "conditions": "Bacillus subtilis, 168", "method": "as §1, §2"}, "Edwardsiella tarda [2]": {"system": "Edwardsiella tarda", "experiment": "MIC micro-dilution", "format": "cell-based", "method": "as §1, §2"}, "Enterobacter aerogenes [3]": {"system": "Enterobacter aerogenes", "experiment": "MIC micro-dilution", "format": "cell-based", "method": "as §1, §2"}, "Klebsiella pneumoniae [4]": {"system": "Klebsiella pneumoniae", "experiment": "MIC micro-dilution", "format": "cell-based", "method": "as §1, §2"}, "Morganella morganii [5]": {"system": "Morganella morganii", "experiment": "MIC micro-dilution", "format": "cell-based", "method": "as §1, §2"}, "Pseudomonas aeruginosa [6]": {"system": "Pseudomonas aeruginosa", "experiment": "MIC micro-dilution", "format": "cell-based", "method": "as §1, §2"}, "Salmonella typhimurium [7]": {"system": "Salmonella typhimurium", "experiment": "MIC micro-dilution", "format": "cell-based", "method": "as §1, §2"}, "Shigella boydii [8]": {"system": "Shigella boydii", "experiment": "MIC micro-dilution", "format": "cell-based", "conditions": "LB media, 37° C., 16-18 hours", "method": "as §1, §2"}, "Staphylococcus aureus [9]": {"system": "Staphylococcus aureus", "experiment": "MIC micro-dilution", "format": "cell-based", "method": "as §1, §2"}, "Streptococcus pyogenes [10]": {"system": "Streptococcus pyogenes", "experiment": "MIC micro-dilution", "format": "cell-based", "conditions": "Mueller-Hinton media containing 5% (v/v) sheep blood, 37° C., 16-18 hours", "method": "as §1, §2"}, "Vibrio cholerae [11]": {"system": "Vibrio cholerae", "experiment": "MIC micro-dilution", "format": "cell-based", "method": "as §1, §2"}, "Acinetobacter baumannii [12]": {"system": "Acinetobacter baumannii", "experiment": "MBC and antibacterial mode", "format": "cell-based", "method": "(§3) The antibacterial mode (i.e., bactericidal, bacteriostatic) was determined by calculating the quotient of the MBC and the MIC. Compounds with a quotient >4 are defined as bacteriostatic; if the quotient is lower than 4, compounds are defined as bactericidal. A micro-dilution protocol was used to perform MIC and MBC experiments in triplicate according to the CLSI guidelines. […] The total volume (100 μL) in the wells with no visual growth were plated on 1.5% (w/v) LB agar or 1.5% (w/v) Mueller-Hinton agar with 5% sheep blood and incubated for 22 hours at 37° C."}, "Edwardsiella tarda [13]": {"system": "Edwardsiella tarda", "experiment": "MBC and antibacterial mode", "format": "cell-based", "method": "as §3"}, "Enterobacter aerogenes [14]": {"system": "Enterobacter aerogenes", "experiment": "MBC and antibacterial mode", "format": "cell-based", "method": "as §3"}, "Klebsiella pneumoniae [15]": {"system": "Klebsiella pneumoniae", "experiment": "MBC and antibacterial mode", "format": "cell-based", "method": "as §3"}, "Morganella morganii [16]": {"system": "Morganella morganii", "experiment": "MBC and antibacterial mode", "format": "cell-based", "method": "as §3"}, "Pseudomonas aeruginosa [17]": {"system": "Pseudomonas aeruginosa", "experiment": "MBC and antibacterial mode", "format": "cell-based", "method": "as §3"}, "Salmonella typhimurium [18]": {"system": "Salmonella typhimurium", "experiment": "MBC and antibacterial mode", "format": "cell-based", "method": "as §3"}, "Shigella boydii [19]": {"system": "Shigella boydii", "experiment": "MBC and antibacterial mode", "format": "cell-based", "method": "as §3"}, "Staphylococcus aureus [20]": {"system": "Staphylococcus aureus", "experiment": "MBC and antibacterial mode", "format": "cell-based", "method": "as §3"}, "Streptococcus pyogenes [21]": {"system": "Streptococcus pyogenes", "experiment": "MBC and antibacterial mode", "format": "cell-based", "method": "as §3"}, "Vibrio cholerae [22]": {"system": "Vibrio cholerae", "experiment": "MBC and antibacterial mode", "format": "cell-based", "method": "as §3"}, "[23]": {"system": "broad panel of human pathogens", "experiment": "MIC against the panel of pathogens", "format": "cell-based", "method": "as §1, §2"}, "[24]": {"system": "E. coli anucleate cell strain (SH3210)", "experiment": "High throughput anucleate cell assay", "format": "cell-based, Escherichia coli", "conditions": "screen of small molecule libraries", "protocol": "Briefly, E. coli anucleate cell strain (SH3210; ΔtrpR5 his λ pXX747) is used in the assay. […] The anucleated cells thus appear fluorescent in the presence of a fluorescent substrate (e.g., DDOAG) for LacZ. The protocol is summarized as follows: • 1. Prepare overnight culture of E. coli anucleate cell strain (SH3210) from LB-ampicillin plates. • 2. Dilute starter culture 1:1000 with liquid LB treated with 50 mg/ml of ampicillin and incubate for approximately 2.5 hr at 37° C. until approximately 0.1 OD600. • 3. Split diluted culture into wells (200 μL) • i. […] Negative control: 1 μL of DMSO • 4. Incubate diluted culture with compounds for approximately 2.5 hr at 42° C. at 300 rpm in a clear plate. • 5. Incubate cultures on ice for approximately 10 min until condensation on the cover disappears. • 6. Measure absorbance at a wavelength of 595 nm. • 7. In a black 96-well plate, add 80 μL of Z-buffer (600 mM Na2HPO4, 40 mM NaH2PO4, 10 mM KCl, 0.1 MgSO4) to each well pre-loaded with the following reagents: • a. Cell lysis solution called Popculture™ (1:5 Popculture™ to buffer). Popculture™ is a buffered mixture of concentrated detergents. • b. […] Shake for 30 s and measure fluorescence at a wavelength of 659 nm. • 13. Normalize the fluorescence measurements by dividing by OD595."}},
  "note": "Several values for one entry are separate records, joined by “and”; a condition that tells them apart may be missing. Equal entries are not always repeated. Where two headings read alike, the source gives them in different places.",
  "data": [
    {"smiles": "CCCCCCCCCOc1ccc2[nH]cc(CCN)c2c1", "note": "[Compound 1, 5-nonyloxytryptamine]", "values": [
      {"measurement": "MIC", "setting": "Acinetobacter baumannii [1]", "result": 6, "unit": "µg/mL"},
      {"measurement": "MIC", "setting": "Acinetobacter baumannii [1]; LB media, 37° C., 16-18 hours", "result": 6.0, "unit": "µg/mL"},
      {"measurement": "MIC", "setting": "Bacillus subtilis 168", "result": 0.76, "unit": "µg/mL"},
      {"measurement": "MIC", "setting": "Edwardsiella tarda [2]", "result": 6, "unit": "µg/mL"},
      {"measurement": "MIC", "setting": "Edwardsiella tarda [2]; LB media, 37° C., 16-18 hours", "result": 6.0, "unit": "µg/mL"},
      {"measurement": "MIC", "setting": "Enterobacter aerogenes [3]; Enterobacter aerogenes, LB media, 37° C., 16-18 hours", "result": 6.0, "unit": "µg/mL"},
      {"measurement": "MIC", "setting": "Enterobacter aerogenes [3]; Klebsiella aerogenes", "result": 6, "unit": "µg/mL"},
      {"measurement": "MIC", "setting": "Klebsiella pneumoniae [4]", "result": 6, "unit": "µg/mL"},
      {"measurement": "MIC", "setting": "Klebsiella pneumoniae [4]; LB media, 37° C., 16-18 hours", "result": 6.0, "unit": "µg/mL"},
      {"measurement": "MIC", "setting": "Morganella morganii [5]", "result": 12, "unit": "µg/mL"},
      {"measurement": "MIC", "setting": "Pseudomonas aeruginosa [6]", "result": "80 µM and 24 µg/mL"},
      {"measurement": "MIC", "setting": "Salmonella typhimurium [7]; Salmonella enterica, TYPHIMURIUM", "result": 6, "unit": "µg/mL"},
      {"measurement": "MIC", "setting": "Salmonella typhimurium [7]; Salmonella typhimurium, LB media, 37° C., 16-18 hours", "result": 6.0, "unit": "µg/mL"},
      {"measurement": "MIC", "setting": "Shigella boydii [8]", "result": 6.0, "unit": "µg/mL"},
      {"measurement": "MIC", "setting": "Shigella boydii [8]; read-out: MIC", "result": 6, "unit": "µg/mL"},
      {"measurement": "MIC", "setting": "Staphylococcus aureus [9]", "result": 3, "unit": "µg/mL"},
      {"measurement": "MIC", "setting": "Staphylococcus aureus [9]; LB media, 37° C., 16-18 hours", "result": 3.0, "unit": "µg/mL"},
      {"measurement": "MIC", "setting": "Streptococcus pyogenes [10]", "result": 24, "unit": "µg/mL"},
      {"measurement": "MIC", "setting": "Vibrio cholerae [11]", "result": 6, "unit": "µg/mL"},
      {"measurement": "MIC", "setting": "Vibrio cholerae [11]; LB media, 37° C., 16-18 hours", "result": 6.0, "unit": "µg/mL"},
      {"measurement": "Antibacterial Mode", "setting": "Acinetobacter baumannii [12]", "result": "Bactericidal (if the quotient is lower than 4, compounds are defined as bactericidal)"},
      {"measurement": "MBC", "setting": "Acinetobacter baumannii [12]", "result": 6, "unit": "µg/mL"},
      {"measurement": "MBC/MIC", "setting": "Acinetobacter baumannii [12]", "result": 1},
      {"measurement": "Antibacterial Mode", "setting": "Edwardsiella tarda [13]", "result": "Bactericidal (if the quotient is lower than 4, compounds are defined as bactericidal)"},
      {"measurement": "MBC", "setting": "Edwardsiella tarda [13]", "result": 12, "unit": "µg/mL"},
      {"measurement": "MBC/MIC", "setting": "Edwardsiella tarda [13]", "result": 2},
      {"measurement": "Antibacterial Mode", "setting": "Enterobacter aerogenes [14]", "result": "Bacteriostatic (Compounds with a quotient >4 are defined as bacteriostatic)"},
      {"measurement": "MBC/MIC", "setting": "Enterobacter aerogenes [14]", "result": ">4"},
      {"measurement": "MBC", "setting": "Enterobacter aerogenes [14]; Klebsiella aerogenes", "result": "> 96", "unit": "µg/mL"},
      {"measurement": "Antibacterial Mode", "setting": "Klebsiella pneumoniae [15]", "result": "Bactericidal (if the quotient is lower than 4, compounds are defined as bactericidal)"},
      {"measurement": "MBC", "setting": "Klebsiella pneumoniae [15]", "result": 6, "unit": "µg/mL"},
      {"measurement": "MBC/MIC", "setting": "Klebsiella pneumoniae [15]", "result": 1},
      {"measurement": "Antibacterial Mode", "setting": "Morganella morganii [16]", "result": "Bactericidal (if the quotient is lower than 4, compounds are defined as bactericidal)"},
      {"measurement": "MBC", "setting": "Morganella morganii [16]", "result": 24, "unit": "µg/mL"},
      {"measurement": "MBC/MIC", "setting": "Morganella morganii [16]", "result": 2},
      {"measurement": "Antibacterial Mode", "setting": "Pseudomonas aeruginosa [17]", "result": "Bacteriostatic (Compounds with a quotient >4 are defined as bacteriostatic)"},
      {"measurement": "MBC", "setting": "Pseudomonas aeruginosa [17]", "result": 96, "unit": "µg/mL"},
      {"measurement": "MBC/MIC", "setting": "Pseudomonas aeruginosa [17]", "result": 4},
      {"measurement": "Antibacterial Mode", "setting": "Salmonella typhimurium [18]", "result": "Bacteriostatic (Compounds with a quotient >4 are defined as bacteriostatic)"},
      {"measurement": "MBC/MIC", "setting": "Salmonella typhimurium [18]", "result": 4},
      {"measurement": "MBC", "setting": "Salmonella typhimurium [18]; Salmonella enterica", "result": 24, "unit": "µg/mL"},
      {"measurement": "Antibacterial Mode", "setting": "Shigella boydii [19]", "result": "Bactericidal (if the quotient is lower than 4, compounds are defined as bactericidal)"},
      {"measurement": "MBC", "setting": "Shigella boydii [19]", "result": 6, "unit": "µg/mL"},
      {"measurement": "MBC/MIC", "setting": "Shigella boydii [19]", "result": 1},
      {"measurement": "Antibacterial Mode", "setting": "Staphylococcus aureus [20]", "result": "Bactericidal (if the quotient is lower than 4, compounds are defined as bactericidal)"},
      {"measurement": "MBC", "setting": "Staphylococcus aureus [20]", "result": 6, "unit": "µg/mL"},
      {"measurement": "MBC/MIC", "setting": "Staphylococcus aureus [20]", "result": 2},
      {"measurement": "Antibacterial Mode", "setting": "Streptococcus pyogenes [21]", "result": "Bactericidal (if the quotient is lower than 4, compounds are defined as bactericidal)"},
      {"measurement": "MBC", "setting": "Streptococcus pyogenes [21]", "result": 24, "unit": "µg/mL"},
      {"measurement": "MBC/MIC", "setting": "Streptococcus pyogenes [21]", "result": 1},
      {"measurement": "Antibacterial Mode", "setting": "Vibrio cholerae [22]", "result": "Bacteriostatic (Compounds with a quotient >4 are defined as bacteriostatic)"},
      {"measurement": "MBC", "setting": "Vibrio cholerae [22]", "result": 24, "unit": "µg/mL"},
      {"measurement": "MBC/MIC", "setting": "Vibrio cholerae [22]", "result": 4},
      {"measurement": "MIC", "setting": "[23]; Pseudomonas aeruginosa", "result": "5 to 20", "unit": "µM"},
      {"measurement": "MIC", "setting": "[23]; against the pathogens tested, except Pseudomonas aeruginosa, read-out: MIC", "result": "3 to 12", "unit": "µg/mL"},
      {"measurement": "hit in anucleate cell screen", "setting": "[24]", "result": "potent hit"}
    ]}
  ]
}
